Measured values taken from DBAASP.
≈ marks a conversion by molar mass, not a printed value. Where “and” joins values, the source holds several entries; their conditions need not be identical. Identical values can stand only once.

Key:
Experiment in all cases: ≥ marks a high value that may be exact or a test limit, other limits are often not marked, values filed in µg/mL are converted to µM
[1] = system: Aeromonas hydrophila
[2] = system: Bacillus pumilus ATCC 63202
[3] = system: Bacillus subtilis ATCC 9372
[4] = system: Bacillus subtilis
[5] = system: Candida albicans ATCC 14053
[6] = system: Candida albicans
[7] = system: Edwardsiella tarda
[8] = system: Enterococcus avium
[9] = system: Enterococcus faecalis ATCC 51299
[10] = system: Enterococcus faecium ATCC 51559
[11] = system: Escherichia coli ATCC 25922
[12] = system: Escherichia coli
[13] = system: Gardnerella vaginalis ATCC 14018
[14] = system: Gardnerella vaginalis ATCC 49145
[15] = system: Gardnerella vaginalis
[16] = system: Lactiplantibacillus plantarum ATCC 14917
[17] = system: Lactobacillus crispatus ATCC 33820
[18] = system: Lactobacillus crispatus
[19] = system: Lactobacillus gasseri ATCC 33323
[20] = system: Lactobacillus jensenii ATCC 25258
[21] = system: Pseudomonas aeruginosa ATCC 27853
[22] = system: Pseudomonas aeruginosa
[23] = system: Staphylococcus aureus ATCC 25923
[24] = system: Staphylococcus aureus ATCC 31007
[25] = system: Staphylococcus aureus ATCC 43300
[26] = system: Staphylococcus aureus ATCC 49476
[27] = system: Staphylococcus aureus MR
[28] = system: Staphylococcus aureus
[29] = system: Streptococcus agalactiae
[30] = system: Streptococcus anginosus
[31] = system: Streptococcus intermedius
[32] = system: Streptococcus pasteurianus
[33] = system: Bacteroides fragilis ATCC 25285
[34] = system: Bacteroides fragilis
[35] = system: Candida albicans ATCC 90028
[36] = system: Clostridium perfringens ATCC 10543
[37] = system: Clostridium septicum
[38] = system: Clostridium tertium ATCC 19465
[39] = system: Cutibacterium acnes ATCC 11828
[40] = system: Cutibacterium acnes
[41] = system: Enterobacter cloacae HNTCC 53001
[42] = system: Enterococcus faecalis ATCC 29212
[43] = system: Fusobacterium nucleatum
[44] = system: Fusobacterium varium ATCC 27725
[45] = system: Klebsiella pneumoniae KK3 9904
[46] = system: Peptoniphilus asaccharolyticus ATCC 29743
[47] = system: Peptostreptococcus anaerobius
[48] = system: Prevotella melaninogenica
[49] = system: Proteus mirabilis ATCC 25933
[50] = system: Salmonella enterica subsp. enterica serovar Typhimurium LT2
[51] = system: Staphylococcus aureus NCTC 8325
[52] = system: Staphylococcus aureus T17/13
[53] = system: Staphylococcus aureus T7/5
[54] = system: Staphylococcus epidermidis RP62A

`CC[C@H](C)[C@H](NC(=O)[C@H](C)NC(=O)[C@H](CCCCN)NC(=O)CNC(=O)[C@H](C)NC(=O)[C@H](CO)NC(=O)[C@H](Cc1ccccc1)NC(=O)[C@H](CC(C)C)NC(=O)CNC(=O)CNC(=O)[C@@H](NC(=O)[C@@H](NC(=O)[C@H](Cc1cnc[nH]1)NC(=O)[C@H](Cc1cnc[nH]1)NC(=O)[C@@H](NC(=O)[C@@H](N)Cc1ccccc1)[C@@H](C)CC)[C@@H](C)CC)[C@@H](C)CC)C(=O)N[C@@H](Cc1cnc[nH]1)C(=O)N[C@@H](CCCN=C(N)N)C(=O)N[C@@H](CC(C)C)C(=O)N[C@H](C(=O)N[C@@H](CCCN=C(N)N)C(=O)N[C@@H](CCCN=C(N)N)C(=O)N[C@@H](CCCN=C(N)N)C(=O)N[C@@H](CCCN=C(N)N)C(=O)N[C@@H](CCCN=C(N)N)C(=O)O)[C@@H](C)CC` [FIHHIIGGLFSAGKAIHRLIRRRRR] showed an MIC [1] of at least 160 µM, an MIC [2] of 1.3 µM (≈ 3.88 µg/mL) and an MIC [3] of 2.7 µM (≈ 8.05 µg/mL). For the same compound, the MIC [4] was 1.7 µM (≈ 5.07 µg/mL), the MIC [5] was 2.62 µM (≈ 7.81 µg/mL) and the MIC [6] was 26.7 µM and 42.9 µM. The MIC [7] was 20 µM (≈ 59.6 µg/mL), the MIC [8] was 0.926 µM (≈ 2.76 µg/mL) and the MIC [9] was 10.8 µM (≈ 32.2 µg/mL). For the same compound, the MIC [10] was 2.7 µM (≈ 8.05 µg/mL), the MIC [11] was 42.9 µM (≈ 128 µg/mL) and the MIC [12] was 5 µM and 1.85 µM. For the same compound, the MIC [13] was 1.31 µM and 2.62 µM, the MIC [14] was 1.31 µM (≈ 3.91 µg/mL) and the MIC [15] was 1.85 µM (≈ 5.53 µg/mL). For the same compound, the MIC [16] was at least 41.9 µM, the MIC [17] was at least 41.9 µM and the MIC [18] was 29.6 µM (≈ 88.4 µg/mL). It also gave an MIC [19] of at least 168 µM, an MIC [20] of at least 83.8 µM and an MIC [21] of 21.5 µM (≈ 64 µg/mL). For the same compound, the MIC [22] was 6.67 µM (≈ 19.9 µg/mL), the MIC [23] was 2.7 µM and 5.4 µM and the MIC [24] was 5.4 µM (≈ 16.1 µg/mL). The MIC [25] was 2.7 µM (≈ 8.05 µg/mL), the MIC [26] was 2.68 µM (≈ 8 µg/mL) and the MIC [27] was 5.37 µM (≈ 16 µg/mL). It also gave an MIC [28] of 5 µM (≈ 14.9 µg/mL), an MIC [29] of 3.71 µM (≈ 11 µg/mL) and an MIC [30] of 3.71 µM (≈ 11 µg/mL). It also gave an MIC [31] of 5.24 µM (≈ 15.6 µg/mL) and an MIC [32] of 1.85 µM (≈ 5.53 µg/mL).

For `CC[C@H](C)[C@H](NC(=O)[C@@H](N)CCCN=C(N)N)C(=O)NCC(=O)N[C@H](C(=O)N[C@@H](CC(C)C)C(=O)N[C@@H](CC(C)C)C(=O)N[C@@H](C)C(=O)N[C@@H](CCCN=C(N)N)C(=O)N[C@@H](CC(C)C)C(=O)N1CCC[C@H]1C(=O)N[C@@H](CCCCN)C(=O)N[C@@H](CC(C)C)C(=O)N[C@@H](Cc1ccccc1)C(=O)N[C@@H](CO)C(=O)N[C@@H](CC(C)C)C(=O)N[C@@H](Cc1ccccc1)C(=O)N[C@@H](CCCCN)C(=O)N[C@@H](CC(C)C)C(=O)N[C@@H](CCSC)C(=O)NCC(=O)N[C@@H](CCCCN)C(=O)N[C@@H](CCCCN)C(=O)N[C@H](C(=O)O)C(C)C)C(C)C` [RIGVLLARLPKLFSLFKLMGKKV], the MIC [33] was at least 50 µM, the MIC [34] was at least 50 µM and the MIC [35] was at least 80 µM. For the same compound, the MIC [36] was 12.5 µM (≈ 32.9 µg/mL), the MIC [37] was at least 50 µM and the MIC [38] was 12.5 µM (≈ 32.9 µg/mL). The MIC [39] was 12.5 µM (≈ 32.9 µg/mL), the MIC [40] was 6 µM (≈ 15.8 µg/mL) and the MIC [41] was 6 µM (≈ 15.8 µg/mL). It also gave an MIC [42] of 12.5 µM (≈ 32.9 µg/mL), an MIC [11] of 2.5 µM (≈ 6.57 µg/mL) and an MIC [43] of at least 50 µM. It also gave an MIC [44] of at least 50 µM, an MIC [45] of 12.5 µM (≈ 32.9 µg/mL) and an MIC [46] of at least 50 µM. For the same compound, the MIC [47] was 25 µM (≈ 65.7 µg/mL), the MIC [48] was 6 µM (≈ 15.8 µg/mL) and the MIC [49] was at least 100 µM. The MIC [21] was 6 µM (≈ 15.8 µg/mL), the MIC [50] was 25 µM (≈ 65.7 µg/mL) and the MIC [51] was at least 40 µM. The MIC [52] was 10 µM (≈ 26.3 µg/mL), the MIC [53] was 20 µM (≈ 52.6 µg/mL) and the MIC [54] was 6 µM (≈ 15.8 µg/mL).
